Measurements from publication PMC7367873, “Dissecting the sequence determinants for dephosphorylation by the catalytic subunits of phosphatases PP1 and PP2A” (Nature Communications, 2020).

Tests used:
[1] = test system: GFP-14-3-3β; test: GFP-14-3-3β co-IP with LC-MS/MS, untreated GFP-14-3-3β versus GFP control (14-3-3 interactome); type: binding, human
Procedure: (§1) HeLa Kyoto cells expressing transiently transfected pEGFP(C1)-14-3-3β or pEGFP(C1) control plasmid, were incubated with 20 nM Calyculin A (# 9902 S, Cell Signaling Technology) for 12 min. Cells were washed twice on ice with cold PBS and after addition of 500 µL lysis buffer (100 mM NaCl, 10 mM Tris, 0.1% IGEPAL, 1 mM EDTA, 1 mM EGTA, 20 nM Calyculin A, 1x cOmplete Mini protease inhibitor cocktail (Sigma), 1 mM DTT, 1 mM MnCl2) cells were scraped from plates, lysed by 10 pushes through an injection needle (21 G, BD) and the insoluble fraction was pelleted by centrifugation (10 min, 10^4 rcf, 4 °C). Supernatants were then subjected to incubation with 1 µM recombinant phosphatase or buffer for 1 h at 30 °C. Next, we subjected samples to immunoprecipitation using α-GFP nanobodies covalently coupled to agarose beads (2 h, 4 °C, obtained from the EMBL PEPcore Core Facility). Beads were then washed three times with lysis buffer and samples were eluted in 1x LDS sample buffer (Thermo Fisher Scientific) by heating to 70 °C for 10 min.
(§2) The samples were then reduced with 25 mM dithiothreitol (10 min at 70 °C) and alkylated with 55 mM chloroacetamide (room temperature, 30 min, in the dark). Proteins were run on a precast 4–12% NuPAGE gel (ThermoFisher Scientific) for about 1 cm to concentrate the sample prior to in-gel tryptic digestion, which was performed according to the standard procedures. The peptides obtained were dried to completeness and resuspended in 12 µL of buffer A (0.1% FA), and 5 µL of sample were injected per MS measurement. The experiment was carried out in three independent replicates.
(§3) The samples were analyzed by LC-MS/MS on a Dionex Ultimate 3000 nano-HPLC coupled online to a Fusion Lumos Tribrid mass spectrometer (Thermo Fisher Scientific). Peptides were delivered to a trap column (75 µm × 2 cm, packed in-house with 5 µm C18 resin; Reprosil PUR AQ, Dr. Maisch) and washed using 0.1% FA at a flow rate of 5 µL/min for 10 min. Subsequently, peptides were transferred to an analytical column (75 µm × 45 cm, packed in-house with 3 µm C18 resin; Reprosil Gold) applying a flow rate of 300 nL/min and separated using a 60 min linear gradient from 4% to 32% LC solvent B (0.1% FA, 5% DMSO in ACN) in LC solvent A (0.1% FA in 5% DMSO). The eluate from the analytical column was sprayed via a stainless steel emitter (Thermo Fisher Scientific) at a source voltage of 2.1 kV into the mass spectrometer. The transfer capillary was heated to 275 °C. The Fusion Lumos was operated in positive ionization mode and data-dependent acquisition (DDA), automatically switching between MS1 and MS2 spectrum acquisition. Full scan MS1 spectra were recorded in the Orbitrap from 360 to 1300 m/z at a resolution of 60k (automatic gain control (AGC) target value of 4e5 charges, maximum injection time (maxIT) of 50 ms). Up to 20 peptide precursors were isolated (isolation window, 1.7 m/z; maximum injection time, 25 ms; and AGC value, 1e5), fragmented by high-energy collision-induced dissociation (HCD) using 30% normalized collision energy (NCE), and analyzed at a resolution of 15k in the Orbitrap. Precursor ions that were singly charged, unassigned, or with charge states >6+ were excluded. The dynamic exclusion duration of fragmented precursor ions was 20 s.
(§4) Peptide and protein identification and LFQ were performed using MaxQuant software (version 1.6.1.0)[64] by searching the data against all canonical protein sequences as annotated in the Swissprot reference database (human proteins only, 20193 entries, downloaded 22 March 2016, internally annotated with PFAM domains) using the embedded search engine Andromeda[65]. The MaxQuant search was performed using two variable modifications; oxidation of methionine and N-terminal protein acetylation. Carbamidomethylation on cysteines was specified as a fixed modification. Trypsin (Trypsin/P) was specified as the proteolytic enzyme with up to two allowed missed cleavage sites.

[2] = test system: GFP-14-3-3β and its binding proteins; test: GFP-14-3-3β co-IP with LC-MS/MS label-free quantification, untreated versus PP1c-treated; set-up: species or system human
Procedure: as §1, §2, §3, §4

[3] = pairwise comparison untreated vs GFP
[4] = pairwise comparison PP1 vs untreated
[5] = untreated vs GFP, LFQ intensities, replicates 1-3
[6] = PP1 vs untreated, LFQ intensities, replicates 1-3
[7] = pairwise comparison untreated GFP-14-3-3β vs GFP, student's t-test, 3 replicates each, LC-MS/MS label-free quantification
[8] = pairwise comparison PP1 vs untreated, student's t-test, 3 replicates each, LC-MS/MS label-free quantification
[9] = log2 difference, pairwise comparison untreated vs GFP, label-free quantification, 3 replicates each
[10] = log2 difference, pairwise comparison PP1 vs untreated, label-free quantification, 3 replicates each
[11] = untreated vs GFP, label-free quantification
[12] = PP1 vs untreated, label-free quantification
[13] = GFP-14-3-3β co-IP LC-MS/MS, untreated vs GFP, student's t-test, label-free quantification, 3 replicates each
[14] = GFP-14-3-3β co-IP LC-MS/MS, PP1 vs untreated, student's t-test, label-free quantification, 3 replicates each
[15] = untreated vs GFP, LFQ intensities, 3 replicates each
[16] = PP1 vs untreated, LFQ intensities, 3 replicates each

## MKI67
[1]; [3]
  Difference (log2), untreated vs GFP: 1.0535 log2
[2]; [4]
  Difference (log2), PP1 vs untreated: 0.1166 log2

## MLEC
[1]; [5]
  Difference (log2), untreated vs GFP: 0.8854 log2
[2]; [6]
  Difference (log2), PP1 vs untreated: -1.535 log2

## MSH6
[1]; [3]
  Difference (log2), untreated vs GFP: 1.062 log2
[2]; [4]
  Difference (log2), PP1 vs untreated: 0.0512 log2

## MTCL1
[1]; [3]
  Difference (log2), untreated vs GFP: 0.986 log2
[2]; [4]
  Difference (log2), PP1 vs untreated: 0.08295 log2

## MYCBP2
[1]; [7]
  Difference (log2), untreated vs GFP: 7.929 log2
[2]; [8]
  Difference (log2), PP1 vs untreated: -3.693 log2

## MYH9
[1]; [7]
  Difference (log2), untreated vs GFP: 0.3664 log2
[2]; [8]
  Difference (log2), PP1 vs untreated: -2.032 log2

## MYO5A
[1]; [9]
  Difference (log2), untreated vs GFP: 0.8351
[2]; [10]
  Difference (log2), PP1 vs untreated: 1.396

## MYO5B
[1]; [11]
  Difference (log2), untreated vs GFP: -1.223 log2
[2]; [12]
  Difference (log2), PP1 vs untreated: 1.198 log2

## MYO5C
[1]; [11]
  Difference (log2), untreated vs GFP: -0.7461 log2
[2]; [12]
  Difference (log2), PP1 vs untreated: 0.9874 log2

## MYO18A
[1]; [7]
  Difference (log2), untreated vs GFP: 2.435 log2
[2]; [8]
  Difference (log2), PP1 vs untreated: -3.467 log2

## NAV1
[1]; [3]
  Difference (log2), untreated vs GFP: 1.95 log2
[2]; [4]
  Difference (log2), PP1 vs untreated: -0.101 log2

## NONO
[1]; [5]
  Difference (log2), untreated vs GFP: 0.331 log2
[2]; [6]
  Difference (log2), PP1 vs untreated: -0.8439 log2

## NPM1
[1]; [3]
  Difference (log2), untreated vs GFP: 0.2613 log2
[2]; [4]
  Difference (log2), PP1 vs untreated: 0.1234 log2

## NSUN2
[1]; [9]
  Difference (log2), untreated vs GFP: -0.08076
[2]; [10]
  Difference (log2), PP1 vs untreated: 1.3958

## NUMA1
[1]; [5]
  Difference (log2), untreated vs GFP: 2.2393 log2
[2]; [6]
  Difference (log2), PP1 vs untreated: -0.7467 log2

## NUP188
[1]; [13]
  Difference (log2), untreated vs GFP: 1.172 log2
[2]; [14]
  Difference (log2), PP1 vs untreated: -0.6223 log2

## NUP205
[1]; [13]
  Difference (log2), untreated vs GFP: 1.662 log2
[2]; [14]
  Difference (log2), PP1 vs untreated: -0.6457 log2

## NUP210
[1]; [5]
  Difference (log2), untreated vs GFP: 2.632 log2
[2]; [6]
  Difference (log2), PP1 vs untreated: -1.109 log2

## PABPC1
[1]; [3]
  Difference (log2), untreated vs GFP: 0.5949 log2
[2]; [4]
  Difference (log2), PP1 vs untreated: 0.26 log2

## PCM1
[1]; [9]
  Difference (log2), untreated vs GFP: -0.166
[2]; [10]
  Difference (log2), PP1 vs untreated: 2.301

## PCNT
[1]; [13]
  Difference (log2), untreated vs GFP: 1.216 log2
[2]; [14]
  Difference (log2), PP1 vs untreated: -0.6422 log2

## PFKP
[1]; [9]
  Difference (log2), untreated vs GFP: -0.1859
[2]; [10]
  Difference (log2), PP1 vs untreated: 1.388

## PHB2
[1]; [11]
  Difference (log2), untreated vs GFP: 1.117 log2
[2]; [12]
  Difference (log2), PP1 vs untreated: 1.222 log2

## PIK3C2B
[1]; [7]
  Difference (log2), untreated vs GFP: 5.48 log2
[2]; [8]
  Difference (log2), PP1 vs untreated: -3.205 log2

## PKM
[1]; [5]
  Difference (log2), untreated vs GFP: 0.471 log2
[2]; [6]
  Difference (log2), PP1 vs untreated: -1.659 log2

## PLEC
[1]; [9]
  Difference (log2), untreated vs GFP: -0.5388
[2]; [10]
  Difference (log2), PP1 vs untreated: 1.29

## PMS2
[1]; [5]
  Difference (log2), untreated vs GFP: 0.6772 log2
[2]; [6]
  Difference (log2), PP1 vs untreated: -0.8647 log2

## PNN
[1]; [13]
  Difference (log2), untreated vs GFP: 2.978 log2
[2]; [14]
  Difference (log2), PP1 vs untreated: -0.4869 log2

## PPIA
[1]; [5]
  Difference (log2), untreated vs GFP: -0.5989 log2
[2]; [6]
  Difference (log2), PP1 vs untreated: -2.011 log2

## PPIB
[1]; [15]
  Difference (log2), untreated vs GFP: 0.09722 log2
[2]; [16]
  Difference (log2), PP1 vs untreated: 0.6708 log2

## PPL
[1]; [5]
  Difference (log2), untreated vs GFP: -0.5694 log2
[2]; [6]
  Difference (log2), PP1 vs untreated: -1.031 log2

## PRKDC
[1]; [3]
  Difference (log2), untreated vs GFP: -0.4154 log2
[2]; [4]
  Difference (log2), PP1 vs untreated: 0.07826 log2

## PRPF8
[1]; [13]
  Difference (log2), untreated vs GFP: 2.212 log2
[2]; [14]
  Difference (log2), PP1 vs untreated: -0.1499 log2

## PRRC2A
[1]; [15]
  Difference (log2), untreated vs GFP: 0.07605 log2
[2]; [16]
  Difference (log2), PP1 vs untreated: 0.5007 log2
